Results from ChEMBL document CHEMBL1122639, “Racemic and optically active 2,9-dimethyl-5-(m-hydroxyphenyl)morphans and pharmacological comparison with the 9-demethyl homologues” (1984).
Active and inactive are the calls of the source. No cut-off for these calls is given here.

Legend:
Mus musculus [1] = test: Compound was administered subcutaneously and was evaluated for opioid agonist activity by antinociceptive p-phenylquinone-writhing (PPQ) assay in mice; I denotes Inactive at 30 mg/kg; assay type: functional, organism-based; set-up: dose 30 mg/kg
Mus musculus [2] = test: Compound was administered subcutaneously and was evaluated for opioid agonist activity by antinociceptive hotplate (HP) assay in mice; I denotes Inactive at 30 mg/kg; assay type: functional, organism-based; set-up: dose 30 mg/kg
Mus musculus [3] = test: Compound was administered subcutaneously and was evaluated for opioid antagonist activity (versus morphine) by tail-flick (TF) antagonism test; I denotes Inactive at 30 mg/kg; assay type: functional, organism-based; set-up: dose 30 mg/kg
Mus musculus [4] = test: Compound was administered subcutaneously and was evaluated for opioid agonist activity by antinociceptive tail-flick (TF) assay in mice; I denotes Inactive at 30 mg/kg; assay type: functional, organism-based; set-up: dose 30 mg/kg
Mus musculus [5] = test: Compound was administered subcutaneously and was evaluated for opioid agonist activity by antinociceptive p-phenylquinone-writhing (PPQ) assay in mice; assay type: functional
Mus musculus [6] = test: Compound was administered subcutaneously and was evaluated for opioid agonist activity by antinociceptive hotplate (HP) assay in mice; assay type: functional
Mus musculus [7] = test: Compound was administered subcutaneously and was evaluated for opioid agonist activity by antinociceptive tail-flick (TF) assay in mice; assay type: functional
Mus musculus [8] = test: Compound was administered subcutaneously and was evaluated for opioid antagonist activity (versus morphine) by tail-flick (TF) antagonism test; assay type: functional
Mus musculus [9] = test: Compound was administered subcutaneously and was evaluated for opioid agonist activity by antinociceptive hotplate (HP) assay in mice.; assay type: functional; details: sc
Mus musculus [10] = test: Compound was administered subcutaneously and was evaluated for opioid antagonist activity (versus morphine) by tail-flick (TF) antagonism test.; assay type: functional
Mus musculus [11] = test: Compound was administered subcutaneously and was evaluated for opioid agonist activity by antinociceptive p-phenylquinone-writhing (PPQ) assay in mice,; assay type: functional; details: sc
Mus musculus [12] = test: Compound was administered subcutaneously and was evaluated for opioid agonist activity by antinociceptive hotplate (HP) assay in mice,; assay type: functional; details: sc
Mus musculus [13] = test: Compound was administered subcutaneously and was evaluated for opioid agonist activity by antinociceptive tail-flick (TF) assay in mice.; assay type: functional; details: sc
[14] = Mus musculus, sc, read-out: ED50

SMILES: COc1cccc([C@@]23CCC[C@H]([C@H]2C)N(C)CC3)c1
- ED50 (Mus musculus [1]): inactive
- ED50 (Mus musculus [2]): inactive
- ED50 (Mus musculus [3]): inactive
- ED50 (Mus musculus [4]): inactive

SMILES: Br.CN1CC[C@]2(c3cccc(O)c3)CCC[C@@H]1C2 (stereo in doubt; (+))
- ED50 (Mus musculus [5]; [14]): 0.5 mg/kg
- ED50 (Mus musculus [6]): 0.4 mg/kg
- ED50 (Mus musculus [7]): 1.1 mg/kg

SMILES: CN1CC[C@]2(c3cccc(O)c3)CCC[C@@H]1C2 (stereo in doubt; (+))
- AD50 (Mus musculus [3]): inactive

SMILES: Br.CN1CC[C@]2(c3cccc(O)c3)CCC[C@@H]1C2 (stereo in doubt; (-))
- ED50 (Mus musculus [5]): 0.9 mg/kg
- ED50 (Mus musculus [6]): 1.7 mg/kg
- ED50 (Mus musculus [7]): 5.4 mg/kg

SMILES: CN1CC[C@]2(c3cccc(O)c3)CCC[C@@H]1C2 (stereo in doubt; (-))
- AD50 (Mus musculus [3]): inactive

SMILES: C[C@@H]1[C@H]2CCC[C@@]1(c1cccc(O)c1)CCN2C.Cl (stereo in doubt; form 1)
- AD50 (Mus musculus [8]): 4.5 mg/kg

SMILES: C[C@@H]1[C@H]2CCC[C@@]1(c1cccc(O)c1)CCN2C (stereo in doubt; form 1)
- ED50 (Mus musculus [1]): inactive
- ED50 (Mus musculus [2]): inactive
- ED50 (Mus musculus [4]): inactive

SMILES: C[C@@H]1[C@H]2CCC[C@@]1(c1cccc(O)c1)CCN2C.Cl (stereo in doubt; form 2)
- ED50 (Mus musculus [5]; [14]): 1.9 mg/kg
- ED50 (Mus musculus [6]; [14]): 10 mg/kg

SMILES: C[C@@H]1[C@H]2CCC[C@@]1(c1cccc(O)c1)CCN2C (stereo in doubt; form 2)
- AD50 (Mus musculus [3]): inactive
- ED50 (Mus musculus [4]): inactive

SMILES: C[C@@H]1[C@H]2CCC[C@@]1(c1cccc(O)c1)CCN2C.Cl (stereo in doubt; form 3)
- ED50 (Mus musculus [9]): 9.3 mg/kg
- AD50 (Mus musculus [10]): 5 mg/kg

SMILES: C[C@@H]1[C@H]2CCC[C@@]1(c1cccc(O)c1)CCN2C (stereo in doubt; form 3)
- ED50 (Mus musculus [1]): inactive
- ED50 (Mus musculus [4]): inactive

SMILES: COc1ccc2c3c1O[C@H]1[C@@H](O)C=C[C@H]4[C@@H](C2)N(C)CC[C@@]341 [CODEINE]
- ED50 (Mus musculus [11]): 1.4 mg/kg
- AD50 (Mus musculus [3]): inactive
- ED50 (Mus musculus [12]): 6.8 mg/kg
- ED50 (Mus musculus [13]): 14.5 mg/kg

SMILES: CN1CC[C@]23c4c5ccc(O)c4O[C@H]2[C@@H](O)C=C[C@H]3[C@H]1C5 [MORPHINE]
- ED50 (Mus musculus [11]): 0.2 mg/kg
- AD50 (Mus musculus [3]): inactive

SMILES: C=CCN1CC[C@]23c4c5ccc(O)c4O[C@H]2[C@@H](O)C=C[C@H]3[C@H]1C5 [NALORPHINE]
- ED50 (Mus musculus [4]): inactive
- ED50 (Mus musculus [5]; [14]): 0.6 mg/kg
- AD50 (Mus musculus [10]): 2.6 mg/kg
